Target: T1, hSK3 channels (Homo sapiens, UniProt Q9UGI6)
T1 construct: expressed in transfected cells; host or cells: HEK293
Experiment: Whole-cell patch-clamp recording of SK3 current in HEK293 cells expressing hSK3 channels
Assay type: cell-based
Experimental: The ionic current through small-conductance Ca^2+-activated K^+ channels (SK channels, subtype 3) is recorded using the whole-cell configuration of the patch-clamp technique in a classic patch-clamp set-up using HEK293 tissue culture cells expressing hSK3 channels as described in e.g. WO 2006/100212.
The SC100 value determined is defined as the Stimulating Concentration required for increasing the baseline current by 100%. The below SC100 value is an indication of the SK3 activating properties of the compounds of the invention.

Cc1cc(C)n(-c2nc(Nc3ccc(Cl)cc3)c3ncn(Cc4ccccc4)c3n2)n1 [Compound 9.1, [9-Benzyl-2-(3,5-dimethyl-pyrazol-1-yl)-9H-purin-6-yl]-(4-chloro-phenyl)-amine]
The SC100 (Stimulating Concentration required for increasing the baseline current by 100%): 0.04 µM
